Test results published in patent publication US9617256B2 (priority 2007, dated 2017).
In brackets after ≈: the same amount, converted by molar mass. Like-named read-outs stand apart in the source and are kept apart here.

Key:
AECO001 (ATCC25922) = test: MIC broth microdilution, AECO001; type: cell-based, E. coli; conditions: for MIC: Escherichia coli
Outline: (§1)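 Inocula prepared from 0.5 McFarland suspensions (final 3×10^5–7×10^5 CFU/mL) were added to 2-fold drug dilution series in cation-adjusted Mueller-Hinton broth. Plates stood 18-24 hours at 35° C. under ambient air.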

[1] = test system: AECO063 (ATCC25922 bearing an acrAB mutation); test: microbe, parasite or virus in culture; type: cell-based, E. coli; conditions: Escherichia coli, ATCC25922, read-out: MIC AECO063
Outline: as §1

APAE001 (ATCC27853) = test: MIC broth microdilution, APAE001; type: cell-based, P. aeruginosa; conditions: Pseudomonas aeruginosa, ATCC27853, read-out: MIC APAE001, APAE001 (ATCC27853)
Outline: as §1

[2] = test system: APAE006 (strain of P. aeruginosa in which all efflux pumps are inactivated); test: microbe, parasite or virus in culture; type: cell-based; conditions: Pseudomonas aeruginosa, read-out: MIC APAE006, APAE006, all efflux pumps inactivated
Outline: (§2)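 (ambient air) in cation-adjusted MHB; inoculum from 0.5 McFarland suspensions, final 3×10^5–7×10^5 CFU/mL; 2-fold serial drug dilutions per CLSI. APAE006: P. aeruginosa with all efflux pumps inactivated.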

[3] = test system: APAE006 in the presence of 8 micrograms per milliliter of polymyxin B nonapeptide; type: cell-based, P. aeruginosa; conditions: APAE006 with 8 micrograms per milliliter polymyxin B nonapeptide
Outline: as §2

[4] = test system: AABA1060 (clinical isolate of Acinetobacter baumannii); test: MIC broth microdilution, AABA1060; type: cell-based; conditions: Acinetobacter baumannii, read-out: MIC AABA1060
Outline: as §1

[5] = test system: ASAU001 (laboratory strain of S. aureus, ATCC29213); test: MIC broth microdilution, ASAU001; type: cell-based; conditions: Staphylococcus aureus, ATCC29213, read-out: MIC ASAU001
Outline: as §1

[6] = ATCC25922, read-out: MIC AECO001
[7] = ATCC25922, read-out: MIC AECO001 HSA AGP

`C[C@@H](N)[C@H](NC(=O)c1ccc(C#CC(O)c2ccc(CN3CCOCC3)cc2)cc1)C(=O)NO` (stereo partly shown) [Example 137-17] showed an MIC (AECO001 (ATCC25922); [6]) of 16 to 64 µg/mL (≈ 34.3 to 137 µM), an MIC (AECO001 (ATCC25922); [7]) of 16 to 64 µg/mL (≈ 34.3 to 137 µM) and an MIC [1] of 16 to 64 µg/mL (≈ 34.3 to 137 µM). For the same compound, the MIC (APAE001 (ATCC27853)) was 16 to 64 µg/mL (≈ 34.3 to 137 µM), the MIC [2] was 2 to 16 µg/mL (≈ 4.29 to 34.3 µM) and the “MIC APAE006 + PMBN” value [3] was “A (MIC's of 2.0 μg/mL or less = A)”. The MIC [4] was 16 to 64 µg/mL (≈ 34.3 to 137 µM) and the MIC [5] was 16 to 64 µg/mL (≈ 34.3 to 137 µM).
In the case of `COCCNCc1ccc(C#Cc2ccc(C(=O)N[C@H](C(=O)NO)[C@@H](C)N)cc2)cc1` [Example 122-1, N-((1S,2R)-2-Amino-1-hydroxycarbamoyl-propyl)-4-{4-[(2-methoxy-ethylamino)-methyl]-phenylethynyl}-benzamide], the MIC (AECO001 (ATCC25922); [6]) is reported as 2 to 16 µg/mL (≈ 4.71 to 37.7 µM), the MIC (AECO001 (ATCC25922); [7]) is reported as 2 to 16 µg/mL (≈ 4.71 to 37.7 µM) and the MIC [1] is reported as < 2 µg/mL. The MIC (APAE001 (ATCC27853)) was 2 to 16 µg/mL (≈ 4.71 to 37.7 µM), the MIC [2] was < 2 µg/mL and the “MIC APAE006 + PMBN” value [3] was “A (MIC's of 2.0 μg/mL or less = A)”. It also gave an MIC [4] of 16 to 64 µg/mL (≈ 37.7 to 151 µM) and an MIC [5] of 16 to 64 µg/mL (≈ 37.7 to 151 µM).
With `CC(C)(N)C(NC(=O)c1ccc(C#CC#Cc2ccc(CNC3CC3)cc2)cc1)C(=O)NO` (stereo not shown) [Example 87-1, N-(2-Amino-1-hydroxycarbamoyl-2-methyl-propyl)-4-[4-(4-cyclopropylaminomethyl-phenyl)-buta-1,3-diynyl]-benzamide] the MIC (AECO001 (ATCC25922); [6]) was < 2 µg/mL, the MIC (AECO001 (ATCC25922); [7]) was 2 to 16 µg/mL (≈ 4.5 to 36 µM) and the MIC [1] was < 2 µg/mL. For the same compound, the MIC (APAE001 (ATCC27853)) was < 2 µg/mL, the MIC [2] was < 2 µg/mL and the “MIC APAE006 + PMBN” value [3] was “A (MIC's of 2.0 μg/mL or less = A)”. The MIC [4] was < 2 µg/mL and the MIC [5] was 16 to 64 µg/mL (≈ 36 to 144 µM).
In the case of `CC(C)(O)[C@H](NC(=O)c1ccc(C#C/C=C/C2CC2)cc1)C(=O)NO` [Example 107-1, 4-((E)-4-Cyclopropyl-but-3-en-1-ynyl)-N—((S)-2-hydroxy-1-hydroxycarbamoyl-2-methyl-propyl)-benzamide], the MIC (AECO001 (ATCC25922); [6]) is reported as < 2 µg/mL, the MIC (AECO001 (ATCC25922); [7]) is reported as 2 to 16 µg/mL (≈ 5.84 to 46.7 µM) and the MIC [1] is reported as < 2 µg/mL. The MIC (APAE001 (ATCC27853)) was < 2 µg/mL, the MIC [2] was < 2 µg/mL and the “MIC APAE006 + PMBN” value [3] was “A (MIC's of 2.0 μg/mL or less = A)”. The MIC [4] was 2 to 16 µg/mL (≈ 5.84 to 46.7 µM) and the MIC [5] was 16 to 64 µg/mL (≈ 46.7 to 187 µM).
With `CC(C)(C)CNCc1ccc(C#Cc2ccc(C(=O)N[C@H](C(=O)NO)C(C)(C)N)cc2)cc1` [Example 122-2] the MIC (AECO001 (ATCC25922); [6]) was < 2 µg/mL, the MIC (AECO001 (ATCC25922); [7]) was 2 to 16 µg/mL (≈ 4.44 to 35.5 µM) and the MIC [1] was < 2 µg/mL. For the same compound, the MIC (APAE001 (ATCC27853)) was < 2 µg/mL, the MIC [2] was < 2 µg/mL and the “MIC APAE006 + PMBN” value [3] was “A (MIC's of 2.0 μg/mL or less = A)”. It also gave an MIC [4] of 2 to 16 µg/mL (≈ 4.44 to 35.5 µM) and an MIC [5] of 16 to 64 µg/mL (≈ 35.5 to 142 µM).
With `CC(C)/C=C/C#Cc1ccc(C(=O)N[C@H](C(=O)NO)C(C)(C)N)cc1` [Example 107-6] the MIC (AECO001 (ATCC25922); [6]) was < 2 µg/mL, the MIC (AECO001 (ATCC25922); [7]) was 2 to 16 µg/mL (≈ 5.82 to 46.6 µM) and the MIC [1] was < 2 µg/mL. For the same compound, the MIC (APAE001 (ATCC27853)) was 2 to 16 µg/mL (≈ 5.82 to 46.6 µM), the MIC [2] was < 2 µg/mL and the “MIC APAE006 + PMBN” value [3] was “A (MIC's of 2.0 μg/mL or less = A)”. The MIC [4] was < 2 µg/mL and the MIC [5] was 16 to 64 µg/mL (≈ 46.6 to 186 µM).
Compound `CC(C)(N)[C@H](NC(=O)c1ccc(C#CC#CC2CCNCC2)cc1)C(=O)NO` [Example 137-23] has an MIC (AECO001 (ATCC25922); [6]) of 16 to 64 µg/mL (≈ 41.8 to 167 µM), an MIC (AECO001 (ATCC25922); [7]) of 16 to 64 µg/mL (≈ 41.8 to 167 µM) and an MIC [1] of 16 to 64 µg/mL (≈ 41.8 to 167 µM). The MIC (APAE001 (ATCC27853)) was 2 to 16 µg/mL (≈ 5.23 to 41.8 µM), the MIC [2] was < 2 µg/mL and the “MIC APAE006 + PMBN” value [3] was “B (MIC's of greater than 2.0 μg/mL to 16.0 μg/mL = B)”. For the same compound, the MIC [4] was 16 to 64 µg/mL (≈ 41.8 to 167 µM) and the MIC [5] was 16 to 64 µg/mL (≈ 41.8 to 167 µM).
With `C[C@@H](O)[C@H](NC(=O)c1ccc(C#CC#Cc2cccc(F)c2)cc1)C(=O)NO` [Example 82-18] the MIC (AECO001 (ATCC25922); [6]) was < 2 µg/mL, the MIC (AECO001 (ATCC25922); [7]) was 2 to 16 µg/mL (≈ 5.26 to 42.1 µM) and the MIC [1] was < 2 µg/mL. For the same compound, the MIC (APAE001 (ATCC27853)) was 2 to 16 µg/mL (≈ 5.26 to 42.1 µM), the MIC [2] was < 2 µg/mL and the “MIC APAE006 + PMBN” value [3] was “A (MIC's of 2.0 μg/mL or less = A)”. The MIC [4] was 16 to 64 µg/mL (≈ 42.1 to 168 µM) and the MIC [5] was 16 to 64 µg/mL (≈ 42.1 to 168 µM).
`C[C@@H](O)[C@H](NC(=O)c1ccc(C#CC#CC2CC2)cc1)C(=O)NO` [Example 91-5] was tested, and the MIC (AECO001 (ATCC25922); [6]) was < 2 µg/mL, the MIC (AECO001 (ATCC25922); [7]) was < 2 µg/mL and the MIC [1] was < 2 µg/mL. For the same compound, the MIC (APAE001 (ATCC27853)) was < 2 µg/mL, the MIC [2] was < 2 µg/mL and the “MIC APAE006 + PMBN” value [3] was “A (MIC's of 2.0 μg/mL or less = A)”. It also gave an MIC [4] of 2 to 16 µg/mL (≈ 6.13 to 49 µM) and an MIC [5] of 16 to 64 µg/mL (≈ 49 to 196 µM).
`O=C(NC(C(=O)NO)C1(O)CC1)c1ccc(C#Cc2ccc(CN3CCOCC3)cc2)cc1` (stereo not shown) [Example 137-24] was tested, and the MIC (AECO001 (ATCC25922); [6]) was < 2 µg/mL, the MIC (AECO001 (ATCC25922); [7]) was 2 to 16 µg/mL (≈ 4.45 to 35.6 µM) and the MIC [1] was < 2 µg/mL. The MIC (APAE001 (ATCC27853)) was 2 to 16 µg/mL (≈ 4.45 to 35.6 µM), the MIC [2] was < 2 µg/mL and the “MIC APAE006 + PMBN” value [3] was “A (MIC's of 2.0 μg/mL or less = A)”. The MIC [4] was 2 to 16 µg/mL (≈ 4.45 to 35.6 µM) and the MIC [5] was 16 to 64 µg/mL (≈ 35.6 to 142 µM).
With `CC(C)(N)[C@H](NC(=O)c1ccc(C#CC#Cc2cncs2)cc1)C(=O)NO` [Example 88-16] the MIC (AECO001 (ATCC25922); [6]) was < 2 µg/mL, the MIC (AECO001 (ATCC25922); [7]) was 2 to 16 µg/mL (≈ 5.23 to 41.8 µM) and the MIC [1] was < 2 µg/mL. For the same compound, the MIC (APAE001 (ATCC27853)) was < 2 µg/mL, the MIC [2] was < 2 µg/mL and the “MIC APAE006 + PMBN” value [3] was “A (MIC's of 2.0 μg/mL or less = A)”. The MIC [4] was < 2 µg/mL and the MIC [5] was 16 to 64 µg/mL (≈ 41.8 to 167 µM).
`CC(C)(N)[C@H](NC(=O)c1ccc(C#CC#CC2CCC2)cc1)C(=O)NO` [Example 91-16] was tested, and the MIC (AECO001 (ATCC25922); [6]) was < 2 µg/mL, the MIC (AECO001 (ATCC25922); [7]) was < 2 µg/mL and the “Ratio of MICs on AECO001 [Cpd (A = —CHCH3NH2)/Cpd (A = —C(CH3)2NH2)]” value (AECO001 (ATCC25922); MIC of paired compound with A = —CHCH3NH2 divided by MIC of compound with A = —C(CH3)2NH2, n=2 data, pairs identical except for the A moiety) was 2.6. The MIC [1] was < 2 µg/mL, the MIC (APAE001 (ATCC27853)) was < 2 µg/mL and the MIC [2] was < 2 µg/mL. For the same compound, the “MIC APAE006 + PMBN” value [3] was “A (MIC's of 2.0 μg/mL or less = A)”, the MIC [4] was < 2 µg/mL and the MIC [5] was 2 to 16 µg/mL (≈ 5.66 to 45.3 µM).
